# According to US9604973B2, “Anti-cancer polyketide compounds” (priority 2012, dated 2017):
# Entries after “also recorded” stand apart in the source; their conditions may differ.
# Assays:
# GAPDH = experiment: RT-PCR of spliced and unspliced mRNA (intron retention) in CLL cells, housekeeping gene; type: cell-based, human; settings: for intron retention/splicing inhibition of GAPDH: 100 nM, 15 min to 4 hours; for splicing inhibition of housekeeping gene GAPDH: 4 hours, same concentrations
# Protocol: (§1) FIG. 23: FD-895 and PLAD induced inhibition of splicing in CLL: RT-PCR for analysis of spliced and unspliced mRNAs. CLL cells treated with FD-895, PLAD (10, 100 nM), chemotherapeutic agent like bendamustine (33, 100 μM) and F-Ara-A (3, 10, 33 μM) for 4 hours. RT-PCR for DNAJB1 was performed with primers spanning two exons; products were analyzed on ethidium bromide-stained agarose gels (2%) to visualize the correct size of the unspliced mRNAs. […] The exon structure of DNAJB1 gene is indicated. G, human genomic DNA was used as a control; U, unspliced mRNA; S, spliced mRNA.
# (§2) CLL cells were treated with 10 and 100 nM of FD-895 and PLAD, 33 and 100 μM of bendamustine and 3, 10, and 33 μM of F-Ara-A for 4 h. Normal B and CLL cells were treated with 100 nM of FD-895 and PLAD and 10 μM of F-Ara-A for 15 minutes, 30 minutes, 1, 2 and 4 h. Total RNA was extracted using mirVana™ miRNA isolation kit (Ambion Life Technology, USA). After DNase treatment, 200 ng total RNA was reverse-transcribed using a SuperScript™ III first-strand synthesis system (Invitrogen). PCR was performed on 10 ng of the obtained cDNA (or human genomic DNA as a control) in 25 μl of reaction mixture containing Plantinum® PCR SuperMix High-fidelity (Invitrogen Life Technology, USA), and 0.1 μM of each primer of the appropriate pair.
# (§3) PCR conditions were 94° C. for 3 min; 35 cycles of 94° C. for 30 s, 60° C. for 30 s, and 72° C. for 1 min; followed by 72° C. for 5 min. PCR products were separated on a 2% agarose gel and stained with ethidium bromide.
# RIOK3 = experiment: Quantitative RT-PCR of unspliced mRNA in CLL cells; type: cell-based, human; settings: 10 nM, 4 hours
# Protocol: (§4) Quantitative RT-PCR using primers specific for each intron quantified unspliced mRNA for DNAJB1 (FIG. 25A) and RIOK3 (FIG. 25B). GAPDH was used for normalization. […] Error bars indicate S.D.
# (§5) CLL cells were treated with 100 nM of FD-895 and PLAD and 10 μM of F-Ara-A for 15 minutes, 1 and 4 h. Normal B and CLL cells were treated with 10, 100, and 1000 nM of FD-895 and PLAD and 10 μM of F-Ara-A for 4 h.
# (§6) Extraction of total RNA and cDNA synthesis were performed as described earlier. Unspliced mRNA was quantified using a 7900HT fast Real Time PCR System (Applied Biosystems). The amounts of unspliced mRNA of DNAJB1, and RIOK3 were determined by SYBR green (Power SYBR Green PCR Master Mix, Applied Biosystems) real-time quantitative RT-PCR using specific primers designed for the intron of each gene (see additional information section at the end).
# (§7) PCR using 0.2 μM of each primer was performed on 20 ng of the obtained cDNA. PCR conditions were 50° C. for 2 min; 95° C. for 10 min; 35 cycles of 94° C. for 20 s, 55° C. for 20 s, followed by 72° C. for 30 s. The mRNA levels were calculated using 2^−ΔΔCT method.^4 GAPDH was used as a control for normalization.
# DNAJB1 [1] = experiment: RT-PCR of spliced and unspliced mRNA (intron retention) in CLL cells; type: cell-based, human; settings: 4 hours, FD-895, PLAD 10, 100 nM, bendamustine 33, 100 μM, F-Ara-A 3, 10, 33 μM
# Protocol: as §1, §2, §3
# DNAJB1 [2] = experiment: Quantitative RT-PCR of unspliced mRNA in CLL cells; type: cell-based, human; settings: for unspliced mRNA of DNAJB1 over time: CLL cells, FD-895, PLAD 100 nM, F-Ara-A 10 μM, 15 min, 1 and 4 hours; for unspliced mRNA of DNAJB1: CLL, 10 nM, 4 hours
# Protocol: FIG. 24: Time-dependent increase of unspliced mRNA by FD-895 and PLAD in CLL: CLL cells were treated with 100 nM of FD-895 and PLAD and 10 μM of F-Ara-A for 15 min, 1 and 4 hours. Quantitative RT-PCR using primers specific for each intron quantified unspliced mRNA for DNAJB1. GAPDH was used for normalization. […] Error bars indicate S.D.
# as §4, §5, §6, §7
# [3] = Hydrolysis, NMR monitoring; type: physicochemical; settings: neutral conditions; 10 mM in D2O/DMSO-d6 (10:1) at 37° C.
# Protocol: FIG. 18A-18B: Hydrolysis of FD-895 (1a). FIG. 18A) NMR monitoring of the incubation of 10 mM 1a in D2O/DMSO-d6 (10:1) at 37° C. Hydrolysis occurs as marked by a shift of the C11 proton (large to small circles). Assignments of 3a, 3b and 3c were made based on coupling constant and gCOSY analyses. FIG. 18B) LdC-HRMS trace depicting the products at 143 h including acids 3a-3c (mass calcd. for C31H52O10Na=607.3453 m/z) along with unhydrolized 1a (mass calcd. for C31H50O9Na=589.3347 m/z). Exact masses [M+Na]^+ are provided for each peak.
# Based on this observation, we turned our efforts to apply conventional SAR techniques to identify analogs with improved stability.
# [4] = tested on: normal B lymphocytes from healthy donor; experiment: Flow cytometry, % specific induced apoptosis in normal B lymphocytes; type: cell-based, human; settings: 48 hours
# Protocol: FIG. 20A-20C: FD-895 and PLAD induce apoptosis in CLL cells but not in normal lymphocytes with a TP53 independent activity: Primary leukemia B cells from CLL (FIG. 20A) patient with del (17p) and Tp53 mutation, (FIG. 20B) patient with wild type p53 and sensitive to F-Ara-A and (FIG. 20C) normal lymphocytes from healthy donor were incubated with FD-895, PLAD and F-Ara-A (0, 10, 100, 1000 10,000 nM) for 48 hours.
# FIG. 21: FD-895 and PLAD induce apoptosis in CLL cells not ONLY independently of Tp53 but also independently of SF3B1 mutational status: Primary leukemia B cells from CLL patient with SF3B1 wild, SF3B1 mutation, 17p DEL and normal B and T lymphocytes from healthy donor were incubated with FD-895 and PLAD with 100 nM for 48 hours. After incubation, the samples were harvested and % SIA was measured by flow cytometry as described above. […] Each dots represents number of CLL patient sample and normal B or T cells.
# Normal B cells were purified from buffy coats of healthy volunteers, obtained from San Diego blood bank. Positive isolation with Dynabeads® CD19 pan B and DETACHaBEAD CD19 (Invitrogen Life Technologies, USA) were used to achieve more than 95% purity by flow cytometry analysis.
# Apoptotic and viable cells were discriminated via flow cytometry of cells stained with 3,3′ dihexyloxacarbocyanine iodide (DiOC6) (Molecular Probes, Eugene, Oreg., USA) and propidium iodine (Sigma, St Louis, Mo., USA), as described.^3 Using this method viable cells exclude PI and stain brightly positive for DiOC6.
# [5] = B cells from healthy donors, 0-10,000 nM
# [6] = normal B cells from healthy donors, 100 nM
Compound,intron retention/splicing inhibition of GAPDH (GAPDH),splicing inhibition of housekeeping gene GAPDH (GAPDH),unspliced mRNA of RIOK3 (RIOK3),intron retention/splicing inhibition of DNAJB1 (DNAJB1 [1]),unspliced mRNA of DNAJB1 over time (DNAJB1 [2]),unspliced mRNA of DNAJB1 (DNAJB1 [2]),hydrolysis [3],"apoptosis (% SIA) [4, 5]","apoptosis (% SIA) [4, 6]"
CCC(OC)C(C)C1OC1C(O)C(C)/C=C/C=C(\C)C1OC(=O)CC(O)CCC(C)(O)C(OC(C)=O)/C=C/C1C (centres unmarked) [FD-895],no intron retention/splicing inhibition,"Neither FD-895, PLAD nor chemotherapy agents showed splicing inhibition",clear increase in unspliced mRNA,showed intron retention at low concentration,gradual increase in unspliced mRNA,clear increase in unspliced mRNA,undergoes hydrolysis under neutral conditions,did not induce significant apoptosis,did not induce significant cell death; also recorded: did not show significant apoptosis
Pladienolide B,no intron retention/splicing inhibition,"Neither FD-895, PLAD nor chemotherapy agents showed splicing inhibition",clear increase in unspliced mRNA,showed intron retention at low concentration,gradual increase in unspliced mRNA,clear increase in unspliced mRNA,,did not induce significant apoptosis,did not induce significant cell death; also recorded: did not show significant apoptosis
